Common to all, as to experiment: PI3 Kinase Activity/Inhibitor Assay (Millipore kit, competitive ELISA)
Common to all, as to type: biochemical
Background: An ELISA detects its analyte on a solid surface through an enzyme-linked reagent.

In experiment [1] the target is PI3Kγ (Homo sapiens (Human), UniProt P48736). An excerpt:
(§1) The PI3 Kinase Activity/Inhibitor Assay Kit was purchased from Millipore. The dimethylsulfoxide was purchased from Sigma-Aldrich.
(§2) The PI3 Kinase Activity/Inhibitor Assay is a competitive assay used for the fast and sensitive quantitation of activity of the four class I PI3 kinases (p110 α, β, γ, δ). The PI3 Kinase Activity/Inhibitor Assay works on the principle that PI3 Kinase phosphorylates P1(3,4)P2 (PIP2), converting it to PI(3,4,5)P3 (PIP3). The PH domain of the protein GRP-1 binds PIP3 with high affinity and specificity. The kit includes this recombinant protein that is used as the capture protein. This protein binds to the glutathione plate and captures either the PIP3 generated as part of the kinase reaction or the biotinylated-PIP3 tracer included in the kit. The captured biotinylated-PIP3 is detected using streptavidin-HRP conjugate and a colorimetric read out (OD 450). The lower the signal, the higher the PI3 Kinase activity.
(§3) PI3-Kinase included in the Kit was diluted at the ratio of 1:10 with distilled water and stored on ice. The compound was prepared by diluting the stock compound to 100× of the final concentration and then diluted again at the ratio of 1:50 to make 2× of the final concentration with distilled water.
(§4) The prepared PI3-Kinase (5 μL/well) and the compound (5 μL/well) were added to Glutathione-Coated Plate and pre-incubated at room temperature for 10 minutes. After adding 5 μL of 5× Kinase reaction buffer per well, PIP2 was diluted at the ratio of 1:20 with distilled water and 5 μL were added into each well. Distilled water was added up to 25 μL, and the reaction mixture was incubated at room temperature for an hour. Biotinylated-PIP3 was diluted at the ratio of 1:18 with 1×TBS solution and 25 μL of the mixture were put in each well excluding the buffer control well. GRP1-GST was diluted at the ratio of 1:1000 with 1×TBS solution and 50 μL of it was added to every well. The mixture was incubated at room temperature for an hour.
(§5) After removing the solution contained in the wells, the wells were washed 4 times with 200 μL of 1×TBST. SA-HRP was diluted at the ratio of 1:2000 with 1×TBST, then 50 μL of it was added into every well and incubated at room temperature for an hour. Again after removing the solution, they were washed 5 times by adding 200 μL of 1×TBST to each well. 100 μL of TMB solution was added to every well. The plate was developed in the dark for 5-20 minutes. As blue color appeared, the reaction was stopped by adding 100 μL of stop solution to every well, and the plate was read at 450 nm with ELISA Reader (TECAN).
(§6) For the calculation of relative percentage to biotinylated-PIP3, we take the direct absorbance at 450 nm (A450) and set the positive Biotinylated-PIP3 wells as 100 percentage. All the other signals are divided by the Biotinylated-PIP3 average, and multiplied by 100 to show the relative percentage to the positive signal. Relative % to B-PIP3=(A450 of samples include buffer, kinase & inhibitors/A450 of Biotinylated-PIP3 average)×100
(§7) IC50 values were calculated from the values read at 450 nm by using Graphpad Prism 5 software.

For experiment [2], the target named is PI3Kδ (Homo sapiens (Human), UniProt O00329).
Text: as §1, §2, §3, §4, §5, §6, §7

Experiment [3] deals with PI3Kα (Homo sapiens (Human), UniProt P42336).
Text: as §1, §2, §3, §4, §5, §6, §7

PI3Kγ, sequence (P48736 whole entry, species assumed): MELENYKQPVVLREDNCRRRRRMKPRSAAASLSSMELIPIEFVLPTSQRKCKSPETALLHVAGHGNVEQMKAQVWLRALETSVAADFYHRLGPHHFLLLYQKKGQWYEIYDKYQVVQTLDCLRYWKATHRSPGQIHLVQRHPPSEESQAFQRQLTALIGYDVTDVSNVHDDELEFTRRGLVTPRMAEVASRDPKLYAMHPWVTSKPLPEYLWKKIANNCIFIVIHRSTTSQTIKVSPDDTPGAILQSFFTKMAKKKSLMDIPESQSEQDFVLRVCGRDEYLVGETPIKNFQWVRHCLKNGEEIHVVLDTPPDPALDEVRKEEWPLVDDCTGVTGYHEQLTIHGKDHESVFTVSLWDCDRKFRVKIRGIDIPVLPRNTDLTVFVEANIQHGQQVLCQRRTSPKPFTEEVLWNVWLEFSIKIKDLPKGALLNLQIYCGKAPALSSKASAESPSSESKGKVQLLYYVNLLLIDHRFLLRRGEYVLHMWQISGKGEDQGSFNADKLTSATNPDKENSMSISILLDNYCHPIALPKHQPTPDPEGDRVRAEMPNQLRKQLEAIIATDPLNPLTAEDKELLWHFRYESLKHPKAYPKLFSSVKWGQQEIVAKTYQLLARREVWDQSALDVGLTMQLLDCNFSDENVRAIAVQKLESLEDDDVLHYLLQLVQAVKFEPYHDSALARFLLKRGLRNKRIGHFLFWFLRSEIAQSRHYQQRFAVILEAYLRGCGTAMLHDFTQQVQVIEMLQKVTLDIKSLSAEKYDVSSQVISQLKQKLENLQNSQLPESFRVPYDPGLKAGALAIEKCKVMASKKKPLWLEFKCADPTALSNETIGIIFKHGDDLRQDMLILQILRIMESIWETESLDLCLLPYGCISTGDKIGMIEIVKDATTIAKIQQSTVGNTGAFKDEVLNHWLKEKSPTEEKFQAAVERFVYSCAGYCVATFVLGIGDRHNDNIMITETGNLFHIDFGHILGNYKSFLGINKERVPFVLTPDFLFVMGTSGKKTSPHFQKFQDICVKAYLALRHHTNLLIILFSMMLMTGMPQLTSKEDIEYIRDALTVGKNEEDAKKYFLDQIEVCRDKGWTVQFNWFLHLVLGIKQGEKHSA
PI3Kδ, sequence (O00329 whole entry, species assumed): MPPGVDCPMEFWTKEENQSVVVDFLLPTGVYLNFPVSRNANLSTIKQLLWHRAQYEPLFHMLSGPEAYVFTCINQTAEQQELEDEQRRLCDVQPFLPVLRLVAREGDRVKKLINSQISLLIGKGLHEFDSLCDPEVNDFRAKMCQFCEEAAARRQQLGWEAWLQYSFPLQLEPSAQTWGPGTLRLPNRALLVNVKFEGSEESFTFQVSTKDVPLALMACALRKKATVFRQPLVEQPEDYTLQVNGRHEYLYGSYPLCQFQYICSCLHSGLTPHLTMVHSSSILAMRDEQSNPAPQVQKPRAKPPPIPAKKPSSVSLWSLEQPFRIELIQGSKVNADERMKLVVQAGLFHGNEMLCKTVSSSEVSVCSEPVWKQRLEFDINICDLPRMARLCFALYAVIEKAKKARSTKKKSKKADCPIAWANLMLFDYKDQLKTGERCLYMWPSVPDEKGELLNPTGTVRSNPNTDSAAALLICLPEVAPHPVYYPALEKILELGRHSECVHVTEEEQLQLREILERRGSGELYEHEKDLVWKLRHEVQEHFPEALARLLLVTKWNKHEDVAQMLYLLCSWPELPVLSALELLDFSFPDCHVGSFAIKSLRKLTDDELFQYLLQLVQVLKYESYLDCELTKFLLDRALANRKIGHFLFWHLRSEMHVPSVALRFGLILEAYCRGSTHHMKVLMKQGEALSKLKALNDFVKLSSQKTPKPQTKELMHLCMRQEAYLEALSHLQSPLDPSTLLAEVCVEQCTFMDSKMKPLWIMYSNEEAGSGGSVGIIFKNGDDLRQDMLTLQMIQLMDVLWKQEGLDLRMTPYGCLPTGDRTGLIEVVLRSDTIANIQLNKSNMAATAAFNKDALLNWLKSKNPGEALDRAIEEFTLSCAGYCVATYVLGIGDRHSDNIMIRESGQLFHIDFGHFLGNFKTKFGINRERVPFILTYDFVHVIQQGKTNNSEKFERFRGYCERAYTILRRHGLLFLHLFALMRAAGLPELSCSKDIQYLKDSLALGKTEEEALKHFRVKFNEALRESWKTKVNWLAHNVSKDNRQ
PI3Kδ, sequence (P27986 whole entry partner, species assumed): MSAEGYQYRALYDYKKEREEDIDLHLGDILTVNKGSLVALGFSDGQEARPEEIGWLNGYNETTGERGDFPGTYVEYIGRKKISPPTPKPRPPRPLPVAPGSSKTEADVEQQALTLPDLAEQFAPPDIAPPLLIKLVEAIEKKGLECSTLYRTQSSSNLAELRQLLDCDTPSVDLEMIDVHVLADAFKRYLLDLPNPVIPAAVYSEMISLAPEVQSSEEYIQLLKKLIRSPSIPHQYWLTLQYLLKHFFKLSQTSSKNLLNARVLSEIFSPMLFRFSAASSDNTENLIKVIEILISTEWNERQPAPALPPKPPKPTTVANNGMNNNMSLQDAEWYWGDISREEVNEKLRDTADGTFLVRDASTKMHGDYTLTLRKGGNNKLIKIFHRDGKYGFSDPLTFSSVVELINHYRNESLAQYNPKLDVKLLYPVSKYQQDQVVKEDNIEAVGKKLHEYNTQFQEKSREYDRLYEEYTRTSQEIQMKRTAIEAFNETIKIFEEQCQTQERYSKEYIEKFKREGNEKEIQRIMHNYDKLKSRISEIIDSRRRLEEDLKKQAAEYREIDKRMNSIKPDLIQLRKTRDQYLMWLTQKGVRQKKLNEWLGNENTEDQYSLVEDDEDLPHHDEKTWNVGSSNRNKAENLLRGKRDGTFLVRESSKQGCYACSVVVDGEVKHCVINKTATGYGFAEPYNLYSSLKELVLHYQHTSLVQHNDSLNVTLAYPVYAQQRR
PI3Kα, sequence (P42336 whole entry, looked up, species assumed): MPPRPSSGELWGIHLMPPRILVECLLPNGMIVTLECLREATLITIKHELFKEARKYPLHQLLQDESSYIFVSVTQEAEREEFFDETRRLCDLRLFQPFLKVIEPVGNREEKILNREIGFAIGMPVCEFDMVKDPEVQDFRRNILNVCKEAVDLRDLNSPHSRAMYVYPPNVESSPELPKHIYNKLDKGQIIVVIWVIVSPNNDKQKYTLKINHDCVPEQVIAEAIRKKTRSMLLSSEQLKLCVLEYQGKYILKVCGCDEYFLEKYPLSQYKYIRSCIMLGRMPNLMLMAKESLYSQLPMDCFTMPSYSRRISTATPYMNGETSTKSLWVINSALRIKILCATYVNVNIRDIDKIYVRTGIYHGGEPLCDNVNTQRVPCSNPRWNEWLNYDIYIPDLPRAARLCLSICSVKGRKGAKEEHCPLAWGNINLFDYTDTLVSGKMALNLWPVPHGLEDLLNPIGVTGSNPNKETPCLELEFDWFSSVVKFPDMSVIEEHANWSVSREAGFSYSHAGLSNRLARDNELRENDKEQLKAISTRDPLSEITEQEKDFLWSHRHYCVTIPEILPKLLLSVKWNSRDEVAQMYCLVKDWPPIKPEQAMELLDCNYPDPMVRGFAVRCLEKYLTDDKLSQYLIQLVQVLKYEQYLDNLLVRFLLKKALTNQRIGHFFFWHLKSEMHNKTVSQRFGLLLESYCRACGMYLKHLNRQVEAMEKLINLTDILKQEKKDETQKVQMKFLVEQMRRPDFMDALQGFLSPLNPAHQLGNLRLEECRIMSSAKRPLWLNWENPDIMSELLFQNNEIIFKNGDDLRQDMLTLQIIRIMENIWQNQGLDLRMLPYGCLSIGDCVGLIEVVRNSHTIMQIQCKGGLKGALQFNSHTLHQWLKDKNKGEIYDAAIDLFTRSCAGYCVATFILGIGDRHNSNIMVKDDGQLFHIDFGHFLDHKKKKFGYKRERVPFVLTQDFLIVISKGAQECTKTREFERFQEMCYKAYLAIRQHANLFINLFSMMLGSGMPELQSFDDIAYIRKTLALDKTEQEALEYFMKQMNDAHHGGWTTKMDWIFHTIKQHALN
PI3Kα, sequence (P27986 whole entry partner, looked up, species assumed): as the sequence (P27986 whole entry partner, species assumed) above

As for `O=S(=O)(Nc1cc(-c2ccc3ncnc(OC4CCOCC4)c3n2)cnc1Cl)c1ccc(F)cc1F`, the IC50 in experiment [1], in experiment [2] and in experiment [3] was < 1 µM throughout.

With `O=S(=O)(Nc1cncc(-c2ccc3ncnc(OC4CCOCC4)c3n2)c1)c1ccccc1`, the concentration for half-maximal inhibition (IC50) in experiment [1] was < 1 µM; in experiment [2], < 10 µM; in experiment [3] it was < 10 µM.

With `O=S(=O)(Nc1cncc(-c2ccc3ncnc(Oc4cccnc4)c3n2)c1)c1ccccc1`, the figures for the IC50 in experiment [1], in experiment [2] and in experiment [3] were < 1 µM, < 10 µM and < 10 µM, respectively.

Turning to `O=S(=O)(Nc1cc(-c2ccc3ncnc(NC4CCOCC4)c3n2)cnc1Cl)c1ccc(F)cc1F`, the concentration for half-maximal inhibition (IC50) in experiment [1], in experiment [2] and in experiment [3] was < 10 µM each time.

Take `CN1CCC(Oc2ncnc3ccc(-c4cnc(Cl)c(NS(=O)(=O)c5ccc(F)cc5F)c4)nc23)CC1`: the 50% inhibitory concentration (IC50) in experiment [1] was < 10 µM; in experiment [2], < 1 µM; in experiment [3] it was < 1 µM.

As to `CN1CCC(Oc2ncnc3ccc(-c4cncc(NS(=O)(=O)c5ccccc5)c4)nc23)CC1`, the IC50 in experiment [1], in experiment [2] and in experiment [3] was < 10 µM each time.

Usually IC50 stands for the concentration at which inhibition is half-maximal.

The values above are taken from patent US8664230B2, “Pyridopyrimidine derivatives and use thereof” (The Asan Foundation, priority 2011, dated 2014).
